Test results as given in patent EP3076168A1, “An electrochemical sensor” (Unisense Environment A/S, priority 2015, dated 2016).

Key:
[1] = Solubility test of oxygen scavenger candidates (solvent added for a final 1 M, visual inspection of remaining solid); format: physicochemical; details: stated as substantially lower than 1 M
Description: In other cases, solubility tests with acetonitrile instead of propylene carbonate was performed.
In the case that solids remained after addition of solvent and vigorous stirring, the solubility of a candidate is assessed by visual inspection of the amount of remaining compound versus the amount of compound prior to solvent addition. In the case of a commercially available candidate dissolved in tetrahydrofuran (THF), the THF is removed under reduced pressure prior to addition of solvent.

[2] = Profiling: penetration of oxygen through candidate solution, measured with an OX10 oxygen microsensor; details: 0.1 M solution in propylene carbonate
Description: The penetration of oxygen through the solution of the candidates was determined using an OX10 oxygen microsensor from Unisense A/S in conjunction with a microprofiling laboratory stand.
A small capillary, cautiously filled with candidate solution in order to avoid bulk oxidation, was placed underneath the tip of the oxygen microsensor. The microprofiling stand was remotely controlled by the bundled software in order to move the microelectrode tip with five to ten micrometers between each concentration measurement. The microelectrode was calibrated prior to each candidate measurement using air-bubbled demineralised water and oxygen-free alkaline ascorbic acid solution.
The microsensor was used to profile oxygen-free alkaline ascorbic acid solution prior to and after measurement of each candidate to 1) ensure that physical damage during candidate measurement could be detected and to 2) provide baseline signal for normalisation of candidate profiles.
Each candidate profile was subtracted the baseline signal and normalised with respect to surface oxygen concentration in order to assess the candidate oxygen removal efficiency. A normalised signal of unity equals surface oxygen concentration and a normalised signal of 0.01 equals a dissolved oxygen concentration of 1 % of surface concentration.

SMILES: CC(C)(C)P(CCCC[N+]1(C)CCOCC1)C(C)(C)C.[Br-] [Candidate 10, N-[4-(di-tert-butylphosphino)butyl]-N-methylmorpholinium bromide]
- Concentration in propylene carbonate (PC) [1]: lower than 1 M

SMILES: c1ccc(Pc2ccccc2)cc1 [Candidate 1, Diphenylphosphine]
- Oxygen profile depth [2]: ca. 75 µm
